Reference: patent US8791162B2, “Cathepsin cysteine protease inhibitors” (Merck Sharp & Dohme Corp., priority 2011, dated 2014)

How the values were obtained:
[1] = Rhesus IV Pharmacokinetics; type: in vivo, rhesus monkeys; conditions: for % AUC Extrap. / AUC(0-inf) / C0 / AUC / clearance / Vd / half-life: male rhesus monkeys; for concentration at 0.5 h: 0.50 hours; for AUC: read-out: AUC(0-x); for clearance: read-out: Cl (plasma clearance); for Vd: read-out: Vdss; for half-life: read-out: t½ (converted)
Method: The study was conducted in male rhesus monkeys (n=4) via the intravenous route using a deuteriated (D6-Odanacatib, or D6-ODN) and non-deuteriated (D0-Odanacatib, or D0-ODN) forms of odanacatib. The dosing solution was prepared in DMSO at a concentration of 7.5 mg/mL and the dose volume was 0.1 mL/kg. Each monkey was administered a 0.75 mg/kg dose each of D6-ODN and D0-ODN as a mixture. Animals were fasted overnight prior to dosing. The dose was administered via the saphenous vein. […] Plasma was stored at −70° C. until analysis.
The lower limit of quantitation was 0.48 nM.
Pharmacokinetic parameters were obtained using non-compartmental methods (Watson®). The plasma clearance (CLP) was calculated as the IV dose divided by the area under the plasma concentration versus time curve (AUC0-∞). AUC was determined using logarithmic trapezoidal interpolation.

[2] = rhesus monkey, in vivo, po, 2.5 mg/kg
Method: The pharmacokinetic evaluation was carried out following oral administration to monkeys of the following ODN forms and formulations: D6-ODN spray-dried formulation (A), D6-ODN conventional formulation (B), D0-ODN spray-dried formulation (C) and D0-ODN conventional formulation (D).
The deuterated analog of odanacatib (D6-ODN) as well as ODN (D0-ODN) were prepared either as spray-dried or conventional (crystalline) formulations for pharmacokinetic study in monkeys. The spray-dried form was suspended in water, while the crystalline drug was dissolved in Imwitor:Tween for oral administration to monkeys. Spray-dried D6-ODN (A), crystalline D6-ODN (B), spray-dried D0-ODN (C) and crystalline D0-ODN (D) were dosed to monkeys (n=4) in a cross-over fashion. Each monkey was administered a ˜2.5 mg/kg dose each of forms B and D as a mixture in period one, and forms C and A were then dosed after a washout period. […]
The concentrations of D6-ODN and D0-ODN in plasma were determined by LC-MS/MS in the positive ion mode using the Turbo Ion Spray interface. […] Quantification was based on selected reaction monitoring of the following precursor/product ion pairs: m/z 526.3→313.0 (D0-ODN); m/z 532.2→313.2 (D6-ODN); m/z 538.3→325.2 (^13C12-ODN). The lower limit of quantitation was 1.9 nM. […]

human Cat K = biological target: T1, human Cat K (Homo sapiens, UniProt P43235); conditions: human Cat K vs other human cathepsins; cited from earlier work
T1 sequence (P43235 115-329): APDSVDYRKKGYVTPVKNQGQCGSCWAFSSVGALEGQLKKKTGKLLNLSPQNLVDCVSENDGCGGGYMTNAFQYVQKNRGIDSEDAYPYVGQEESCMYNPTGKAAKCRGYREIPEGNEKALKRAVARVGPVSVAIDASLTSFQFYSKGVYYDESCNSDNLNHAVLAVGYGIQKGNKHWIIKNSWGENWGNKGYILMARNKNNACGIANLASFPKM

[3] = rhesus monkey, plasma, male rhesus monkeys n=4, 0.75 mg/kg IV
[4] = rhesus monkey, plasma, 0.75 mg/kg IV

SMILES: [2H]C([2H])([2H])C(F)(C[C@H](N[C@@H](c1ccc(-c2ccc(S(C)(=O)=O)cc2)cc1)C(F)(F)F)C(=O)NC1(C#N)CC1)C([2H])([2H])[2H] [Example D6-ODN, (2S)—N-(1-cyanocyclopropyl)-5,5,5-trideuterio-4-fluoro-4-(trideuteriomethyl)-2-[[(1S)-2,2,2-trifluoro-1-[4-(4-methylsulfonylphenyl)phenyl]ethyl]amino]pentanamide]
- % AUC Extrap. ([1]; 0.75 mg/kg IV): 1.7%
- concentration at 0.08 h [1, 3]: 894 nM
- concentration at 0.25 h [1, 3]: 839 nM
- concentration at 0.5 h [1, 3]: 793 nM
- concentration at 1 h [1, 3]: 831 nM
- concentration at 4 h [1, 3]: 633 nM
- concentration at 8 h [1, 3]: 633 nM
- concentration at 12 h [1, 3]: 515 nM
- concentration at 24 h [1, 3]: 273 nM
- concentration at 30 h [1, 3]: 208 nM
- concentration at 48 h [1, 3]: 70.7 nM
- concentration at 72 h ([1]; rhesus monkey, plasma, male rhesus monkeys n=4, 0.75 mg/kg IV, 72.00 hours): 28.4 nM
- concentration at 96 h ([1]; rhesus monkey, plasma, male rhesus monkeys n=4, 0.75 mg/kg IV, 96.00 hours): 13.8 nM
- AUC(0-inf) [1, 4]: 18 µM·h
- C0 [1, 4]: 933 nM
- AUC [1, 4]: 17.7 µM·h
- clearance [1, 4]: 1.4 mL/min/kg
- Vd [1, 4]: 1.7 L/kg
- half-life [1, 4]: 16 h
- higher exposure compared to D0-ODN ([1]; rhesus monkeys, 0.75 mg/kg IV): 3 fold
- longer half-life compared to D0-ODN ([1]; rhesus monkeys, 0.75 mg/kg IV): 4 fold
- lower clearance compared to D0-ODN ([1]; rhesus monkeys, 0.75 mg/kg IV): 3 fold
- increase in plasma elimination half-life of ODN by deuterium substitution [2]: about 2.5 fold

SMILES: CC(C)(F)C[C@H](N[C@@H](c1ccc(-c2ccc(S(C)(=O)=O)cc2)cc1)C(F)(F)F)C(=O)NC1(C#N)CC1 [Example D0-ODN, N^1-(1-cyanocyclopropyl)-4-fluoro-N^2-{(1S)-2,2,2-trifluoro-1-[4′-(methylsulfonyl)-1,1′-biphenyl-4-yl]ethyl}-L-leucinamide, reference compound]
- % AUC Extrap. ([1]; 0.75 mg/kg IV): 0.25%
- concentration at 0.08 h [1, 3]: 1020 nM
- concentration at 0.25 h [1, 3]: 947 nM
- concentration at 0.5 h [1, 3]: 872 nM
- concentration at 1 h [1, 3]: 854 nM
- concentration at 4 h [1, 3]: 462 nM
- concentration at 8 h [1, 3]: 250 nM
- concentration at 12 h [1, 3]: 130 nM
- concentration at 24 h [1, 3]: 14.5 nM
- concentration at 30 h [1, 3]: 6.22 nM
- concentration at 48 h [1, 3]: 1.22 nM
- AUC(0-inf) [1, 4]: 5.73 µM·h
- C0 [1, 4]: 1080 nM
- AUC [1, 4]: 5.71 µM·h
- clearance [1, 4]: 4.6 mL/min/kg
- Vd [1, 4]: 1.9 L/kg
- half-life [1, 4]: 3.7 h
- selectivity against all other known human cathepsins (human Cat K): ≥ 300 fold
